Literature values in patent publication US9974685B2, “Drug delivery system and methods of treating open angle glaucoma and ocular hypertension” (Mati Therapeutics, Inc., priority 2011, dated 2018).

Tests used:
rabbits = settings: twice-daily ocular instillation, doses up to 50 μg per eye for 52 weeks (100 μg/eye/day)
cynomolgus monkeys = settings: doses up to 50 μg/eye twice daily (100 μg/eye/day), 52 weeks, not judged to be deleterious
healthy volunteers = settings: 28 healthy volunteers; 1 drop of 50 μg/mL 4 times daily for 2 weeks; resolved spontaneously without cessation of treatment

solubility in organic solvents (acetone, ethanol, ethyl acetate, isopropanol, methanol and octanol): freely soluble | solubility in acetonitrile (acetonitrile): very soluble | solubility in water (water): practically insoluble
Compound: CC(C)OC(=O)CCC/C=C\C[C@@H]1[C@@H](CC[C@@H](O)CCc2ccccc2)[C@H](O)C[C@@H]1O [Latanoprost, isopropyl-(Z)-7 [(1R,2R,3R,5S)3,5-dihydroxy-2-[(3R)-3-hydroxy-5-phenylpentyl]cyclopentyl]-5-heptenoate]
adverse effects (rabbits): no adverse effects | effects observed (cynomolgus monkeys): a reversible change in the aspect of the palpebral fissure and a non-reversible increase in iris pigmentation | ocular effects during the 4-dose regimen (healthy volunteers): transient photophobia, cells, and mild flare were common
